Drawing on patent publication US20250388574A1, “HETEROCYCLIC COMPOUNDS AS TRIGGERING RECEPTOR EXPRESSED ON MYELOID CELLS 2 AGONISTS AND METHODS OF USE” (AMGEN INC., priority 2020, published 2025), this text covers Emax and EC50 for 19 compounds.

For orientation: pEC50 means the EC50 on a negative log10 scale, so that one unit is a factor of ten.

For this test, the target named is hTREM2 (Homo sapiens, UniProt Q9NZC2). Briefly: Phospho-Syk AlphaScreen/AlphaLISA assay in TREM2 and DAP12 overexpressing HEK293 cells (Example A1). In kind it is cell-based. Details: expressed in transfected cells. The note with it: HEK293 cells; for pEC50: read-out: hTREM2 EC50. Put shortly: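 Agonism read as Syk phosphorylation: compounds in 1% DMSO applied 45 min at room temperature to TREM2/DAP12-HEK293 cells after 20 h culture. Lysis buffer with phosphatase inhibitors and anti-phospho-Syk plus biotinylated anti-Syk antibodies, then AlphaLISA beads (680 nm excitation); percent of control computed from antibody/isotype wells, curves fitted sigmoidally.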
Sequence of hTREM2 (Q9NZC2 19-230): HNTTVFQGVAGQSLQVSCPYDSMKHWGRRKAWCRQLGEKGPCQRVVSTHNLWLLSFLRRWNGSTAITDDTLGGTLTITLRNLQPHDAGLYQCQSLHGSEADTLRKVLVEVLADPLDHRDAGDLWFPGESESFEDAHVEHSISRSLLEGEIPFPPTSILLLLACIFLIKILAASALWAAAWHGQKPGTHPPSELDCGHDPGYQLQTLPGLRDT
Sequence of hTREM2 (O43914 22-113 partner): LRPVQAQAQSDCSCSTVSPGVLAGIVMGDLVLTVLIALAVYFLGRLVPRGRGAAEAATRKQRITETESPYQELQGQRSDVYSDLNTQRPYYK

Each structure is given as a SMILES string. pEC50: −log10 of the molar value.

`Cc1nc2cc(N3CCO[C@H](c4ccccn4)C3)nc(-c3ccc(Cl)cc3F)c2c(=O)n1C` [Example 209, (S)-5-(4-chloro-2-fluorophenyl)-2,3-dimethyl-7-(2-(pyridin-2-yl)morpholino)pyrido[4,3-d]pyrimidin-4(3H)-one]: the Emax result is “+++ (Emax>200 and ≤300)”; the pEC50 is 5.52 to 6.30.

As to `Cc1nc2cc(N3CCO[C@H](c4cccnc4)C3)nc(-c3ccc(Cl)cc3F)c2c(=O)n1C` [Example 210, (R)-5-(4-chloro-2-fluorophenyl)-2,3-dimethyl-7-(2-(pyridin-3-yl)morpholino)pyrido[4,3-d]pyrimidin-4(3H)-one], the Emax result was “++++ (Emax>300)” and the pEC50 is 6.30 to 7.30.

In the case of `Cc1nc2cc(N3CCO[C@H](c4cnn(C)c4)C3)nc(-c3ccc(Cl)cn3)c2c(=O)n1C` [Example 211, (R)-5-(5-chloropyridin-2-yl)-2,3-dimethyl-7-(2-(1-methyl-1H-pyrazol-4-yl)morpholino)pyrido[4,3-d]pyrimidin-4(3H)-one], the Emax result was “+++ (Emax>200 and ≤300)”; the pEC50 was 4.00 to 5.52.

Take `Cc1nc2cc(N3CCO[C@@H](c4cnn(C)c4)C3)nc(-c3ccc(Cl)cn3)c2c(=O)n1C` [Example 212, (S)-5-(5-chloropyridin-2-yl)-2,3-dimethyl-7-(2-(1-methyl-1H-pyrazol-4-yl)morpholino)pyrido[4,3-d]pyrimidin-4(3H)-one]: the Emax entry is listed as “++++ (Emax>300)” and the negative-log EC50 (pEC50) is 4.00 to 5.52.

Consider `Cc1nc2cc(N3CCC[C@H](c4ccccc4)C3)nc(-c3ccc(Cl)cc3F)c2c(=O)n1C` [Example 213, (R)-5-(4-chloro-2-fluorophenyl)-2,3-dimethyl-7-(3-phenylpiperidin-1-yl)pyrido[4,3-d]pyrimidin-4(3H)-one], for which the Emax result was “++++ (Emax>300)” and the pEC50 was 4.00 to 5.52.

`Cc1nc2cc(N3CCC[C@H](c4cnn(C)c4)C3)nc(-c3ccc(Cl)cc3F)c2c(=O)n1C` [Example 214, (R)-5-(4-chloro-2-fluorophenyl)-2,3-dimethyl-7-(3-(1-methyl-1H-pyrazol-4-yl)piperidin-1-yl)pyrido[4,3-d]pyrimidin-4(3H)-one]: the Emax result is “++++ (Emax>300)” and the pEC50 was 6.30 to 7.30.

For `CCCn1c(C)nc2cc(N3CCO[C@H](c4cnn(C)c4)C3)nc(-c3ncc(Cl)cc3F)c2c1=O` [Example 215, (R)-5-(5-chloro-3-fluoropyridin-2-yl)-2-methyl-7-(2-(1-methyl-1H-pyrazol-4-yl)morpholino)-3-propylpyrido[4,3-d]pyrimidin-4(3H)-one], the Emax result is “++++ (Emax>300)” and the pEC50 is 4.00 to 5.52.

As to `Cc1nc2cc(N3CCO[C@@H](c4cnn(C)c4)C3)nc(-c3ncc(Cl)cc3F)c2c(=O)n1C` [Example 216, (S)-5-(5-chloro-3-fluoropyridin-2-yl)-2,3-dimethyl-7-(2-(1-methyl-1H-pyrazol-4-yl)morpholino)pyrido[4,3-d]pyrimidin-4(3H)-one], the Emax result was “++++ (Emax>300)” and the pEC50 was 5.52 to 6.30.

For the compound `Cc1nc2cc(N3CCO[C@H](c4cnn(C)c4)C3)nc(-c3ncc(Cl)cc3F)c2c(=O)n1C` [Example 217, (R)-5-(5-chloro-3-fluoropyridin-2-yl)-2,3-dimethyl-7-(2-(1-methyl-1H-pyrazol-4-yl)morpholino)pyrido[4,3-d]pyrimidin-4(3H)-one], the Emax entry is “+++ (Emax>200 and ≤300)”; the pEC50 is 4.00 to 5.52.

In the case of `Cc1nc2cc(N3CCO[C@H](c4cnn(C)c4)C3)nc(-c3ccccc3F)c2c(=O)n1C` [Example 218, (R)-5-(2-fluorophenyl)-2,3-dimethyl-7-(2-(1-methyl-1H-pyrazol-4-yl)morpholino)pyrido[4,3-d]pyrimidin-4(3H)-one], the Emax entry is “+++ (Emax>200 and ≤300)”; the pEC50 is 4.00 to 5.52.

`Cc1nc2cc(N3CCO[C@@](C)(C4CC4)C3)nc(-c3ccc(Cl)cc3F)c2c(=O)n1C` [Example 219, (S)-5-(4-chloro-2-fluorophenyl)-7-(2-cyclopropyl-2-methylmorpholino)-2,3-dimethylpyrido[4,3-d]pyrimidin-4(3H)-one]: the Emax entry was “++ (Emax>100 and ≤200)”; the pEC50 is 5.52 to 6.30.

As for `Cc1nc2cc(N3CCO[C@H](c4cnn(C)c4)C3)nc(-c3ccc(Cl)cc3)c2c(=O)n1C` [Example 220, (R)-5-(4-chlorophenyl)-2,3-dimethyl-7-(2-(1-methyl-1H-pyrazol-4-yl)morpholino)pyrido[4,3-d]pyrimidin-4(3H)-one], the Emax result is given as “++++ (Emax>300)” and the pEC50 is 6.30 to 7.30.

`Cc1nc2cc(N3CCO[C@H](c4cnn(C)c4)C3)cc(-c3ccc(Cl)cc3F)c2c(=O)n1C` [Example 221, (R)-5-(4-chloro-2-fluorophenyl)-2,3-dimethyl-7-(2-(1-methyl-1H-pyrazol-4-yl)morpholino)quinazolin-4(3H)-one]: the Emax entry is listed as “++++ (Emax>300)” and the pEC50 was 6.30 to 7.30.

With `Cc1nc2cc(N3CCc4ncn(C)c4C3)nc(-c3ccc(Cl)cc3F)c2c(=O)n1C` [Example 222, 5-(4-chloro-2-fluorophenyl)-2,3-dimethyl-7-(3-methyl-3,4,6,7-tetrahydro-5H-imidazo[4,5-c]pyridin-5-yl)pyrido[4,3-d]pyrimidin-4(3H)-one], the Emax result was “++ (Emax>100 and ≤200)”; the pEC50 was 5.52 to 6.30.

Regarding `Cc1cnc2n1CCN(c1cc3nc(C)n(C)c(=O)c3c(-c3ccc(Cl)cc3F)n1)C2` [Example 223, 5-(4-chloro-2-fluorophenyl)-2,3-dimethyl-7-(3-methyl-5,6-dihydroimidazo[1,2-a]pyrazin-7(8H)-yl)pyrido[4,3-d]pyrimidin-4(3H)-one], the Emax entry was “++ (Emax>100 and ≤200)”; the pEC50 is 4.00 to 5.52.

Regarding `Cc1nc2cc(N3CCO[C@@](C)(c4cnn(C)c4)C3)nc(-c3ccc(Cl)cc3F)c2c(=O)n1C` [Example 224, (S)-5-(4-chloro-2-fluorophenyl)-2,3-dimethyl-7-(2-methyl-2-(1-methyl-1H-pyrazol-4-yl)morpholino)pyrido[4,3-d]pyrimidin-4(3H)-one], the Emax result was “+++ (Emax>200 and ≤300)”; the pEC50 was 5.52 to 6.30.

Turning to `Cc1nc2cc(N3CCO[C@](C)(c4cnn(C)c4)C3)nc(-c3ccc(Cl)cc3F)c2c(=O)n1C` [Example 225, (R)-5-(4-chloro-2-fluorophenyl)-2,3-dimethyl-7-(2-methyl-2-(1-methyl-1H-pyrazol-4-yl)morpholino)pyrido[4,3-d]pyrimidin-4(3H)-one], the Emax entry was “++++ (Emax>300)” and the pEC50 is 5.52 to 6.30.

As to `Cc1nc2cc(N3CCO[C@H](c4ccncc4)C3)nc(-c3ccc(Cl)cc3F)c2c(=O)n1C` [Example 226, (R)-5-(4-chloro-2-fluorophenyl)-2,3-dimethyl-7-(2-(pyridin-4-yl)morpholino)pyrido[4,3-d]pyrimidin-4(3H)-one], the Emax entry is reported as “++++ (Emax>300)” and the pEC50 was 6.30 to 7.30.

Regarding `Cc1nc2cc(N3CCO[C@@H](c4cnn(C)c4)C3)nc(-c3cccc(F)c3F)c2c(=O)n1C` [Example 227, (S)-5-(2,3-difluorophenyl)-2,3-dimethyl-7-(2-(1-methyl-1H-pyrazol-4-yl)morpholino)pyrido[4,3-d]pyrimidin-4(3H)-one], the Emax result is “+++ (Emax>200 and ≤300)”; the pEC50 is 4.00 to 5.52.
